Data as given in publication PMC5048153 (Scientific Reports, 2016).

Experiments:
[1] = PAMPA-BBB literature value ref 38; cited from earlier work
H9C2 cells = experiment: Cytotoxicity on H9C2 cells (MTT); format: cell-based; settings: Rattus norvegicus, 48 h
Description: Human normal hepatic L02 cells, human embryonic kidney cell line 293 cells (HEK293) and Rattus myoblast cell line H9C2 cells were respectively seeded in 96-well plates at a density of 4 × 10^3 cells per well and cultured in the 1640 or DMEM medium, with the supplement of 10% fetal bovine serum, penicillin (100 unit/ml), streptomycin (100 μg/ml) in a humidified incubator with 5% CO2 for 24 h. After adherence, L02, HEK293 and H9C2 cells were exposed to different compounds for another 48 h. The cytotoxicities of the compounds were evaluated by MTT method.

SD rats [2] = experiment: Forced swim test; format: in vivo, rat; settings: ig. 32 mg/kg/day, days 2–15
Description: The detailed procedures were performed according to our previous studies. Briefly, each SD rat was placed in a vertical Plexiglas cylinder (height 50 cm; diameter 20 cm) containing 18 cm height of water at 25 ± 2 °C and was forced to swim individually for 15 min on1st day. From 2nd day to 15th day, the rats were intragastrically administered compound 6a-1 or control drugs at dosage of 32 mg/kg/day. On the 2nd day and 15th day, 30 minutes after drug treatment, each rat was placed again into water and forced to swim for 6 min. The rat behavior was recorded by a video camera placed directly facing cylinders. The duration of immobility during the last 4 minutes was analyzed by Xeye Animal behavior analysis system (Xeye Aba V3.2). The rat was considered as immobile when its moving speed was less than 20 mm/s. The dosage of is 32 mg/kg every day. The water in the cylinder was changed each trial. After each exposure, animals were partially dried with a towel and returned to their home cages. All tests were performed in a quiet room.

[3] = test system: corticosterone injured PC12 cells; experiment: Real-time PCR BDNF mRNA level; format: cell-based, rat; settings: 200 µM corticosterone and 5 µM drug
[4] = test system: corticosterone-injured PC12 cells; experiment: Intracellular calcium ion concentration analysis (Fura-2 AM); format: cell-based, rat; settings: 200 µM corticosterone and 5 µM drug
Description: The detailed procedures were performed according to the reported literatures. In brief, calcium ion concentration was measured by Fura-2 AM (Thermo Scientific). PC12 cells were treated with compound 6a-1 for 48 hours. Then cells were detached with 0.25% trypsin and centrifuged at 1000 r/min for 5 minutes. The supernatant was removed and the cells were stained with Fura-2 AM according to the manufacturer’s instructions. Fluorescence intensity of labeled cells was photographed for 25 random sights each group using Thermo Scientific Array Scan Infinity.

SD rats [5] = experiment: Open field locomotor activity; format: in vivo, rat; settings: ig. 32 mg/kg/day, days 2–15, vs untreated rats
Description: The detailed procedures were performed according to our previous studies. In brief, each SD rat was placed at the center of the open field (50 × 50 cm^2 chamber, 50-cm-high walls, with a 25 cm^2 area in the middle of floor defined as the central square) for 6 min in a quiet room. The animals were gently placed in the center of the platform and were allowed to explore the surroundings. A camera was installed above the center of the field. Immediately after a rat was placed at the center in the open field, the movements and position of the animals were recorded and registered automatically by computerized system. Next test was performed after cleaning the chamber. The traveled tracks of rats were recorded for 6 minutes and the videos of the last 4 minutes were analyzed also by Xeye Animal behavior analysis system.

Compound: CN1C(C(=O)Nc2ccccn2)=C(O)c2ccccc2S1(=O)=O [Piroxicam]
- Pe, Lit. [1]: 2.5 *10^−6 cm/s

Compound: O=C1Nc2ccc(Cl)cc2C(c2ccccc2)=NC1O (centres unmarked) [Oxazepam]
- Pe, Lit. [1]: 10 *10^−6 cm/s

Compound: COc1cccc2c1C(=O)c1c(O)c3c(c(O)c1C2=O)C[C@@](O)(C(=O)CO)C[C@@H]3O[C@H]1C[C@H](N)[C@H](O)[C@H](C)O1 [Adriamycin]
- IC50 (H9C2 cells): 160 ± 20 nM

Compound: CNCCC(Oc1ccc(C(F)(F)F)cc1)c1ccccc1 (centres unmarked) [Fluoxetine]
- mean immobility time reduced compared to the model group (SD rats [2]): 50.7%
- BDNF mRNA level increase compared with corticosterone-injured group [3]: 32.1%
- fluorescence intensity of free intracellular calcium ion [4]: weaker fluorescence intensity than corticosterone-injured PC12 cells
- improved travelled distance (SD rats [5]): 69.8%

Compound: Cn1c(=O)c2[nH]cnc2n(C)c1=O [Theophylline]
- Pe, Lit. [1]: 0.12 *10^−6 cm/s
